Measured values: PMC7099768, “A positron emission tomography imaging study to confirm target engagement in the lungs of patients with idiopathic pulmonary fibrosis following a single dose of a novel inhaled αvβ6 integrin inhibitor” (Respiratory Research, 2020)

How the values were obtained:
[1] = single doses up to 3000 mcg; cited from earlier work

Cc1cc(C)n(-c2cccc([C@H](CC(=O)O)CN3CC[C@@H](CCc4ccc5c(n4)NCCC5)C3)c2)n1 [GSK3008348, (S)-3-(3-(3,5-Dimethyl-1 H-pyrazol-1-yl)phenyl)-4-((R)-3-(2-(5,6,7,8-tetrahydro-1,8-naphthyridin-2-yl)ethyl)pyrrolidin-1-yl) butanoic acid]
Diarrhoea, n (%) (1000 mcg nebulised, N=5): 0 n (%) | Headache, n (%) (1000 mcg nebulised, N=5): 1 (20) n (%) | Number of participants with any AE, n (%) (1000 mcg nebulised, N=5): 3 (60) n (%) | Urinary tract infection, n (%) (1000 mcg nebulised, N=5): 1 (20) n (%) | Intensity and treatment relation of AEs (single nebulised 1000 mcg doses): All AEs were mild in intensity and none were considered treatment related | Tolerability in healthy participants [1]: well tolerated
